These are literature values, as cited in patent publication US20210052557A1, “COMPOSITIONS FOR TREATING INFECTIVE ARTERIAL DISEASES AND RELATED CONDITIONS” (CENTRE FOR DIGESTIVE DISEASES, priority 2018, published 2021).

For series [1], the system named is Chlamydophila pneumoniae (Cpn).
The subject of series [2] is Chlamydophila pneumoniae (Cpn). The following applies: single antibiotic given to patients.

Structures are written as SMILES.

`CC[C@H]1OC(=O)[C@H](C)C(=O)[C@H](C)[C@@H](O[C@@H]2O[C@H](C)C[C@H](N(C)C)[C@H]2O)[C@](C)(OC/C=C/c2cnc3ccccc3c2)C[C@@H](C)C(=O)[C@H](C)[C@H]2NC(=O)O[C@@]21C` [cethromycin]: the “activity against Chlamydophila pneumoniae (Cpn)” value in series [1] is “most active of the macrolides”. Take `CC[C@H]1OC(=O)[C@H](C)[C@@H](O[C@H]2C[C@@](C)(OC)[C@@H](O)[C@H](C)O2)[C@H](C)[C@@H](O[C@@H]2O[C@H](C)C[C@H](N(C)C)[C@H]2O)[C@](C)(O)C[C@@H](C)/C(=N\OCOCCOC)[C@H](C)[C@@H](O)[C@]1(C)O` [roxithromycin]: in series [2], the “clinical benefit as monotherapy” value is “Benefit”. As for `CN(C)c1cc(NC(=O)CNC(C)(C)C)c(O)c2c1C[C@H]1C[C@H]3[C@H](N(C)C)C(O)=C(C(N)=O)C(=O)[C@@]3(O)C(O)=C1C2=O` [Tigecycline], the “activity against Chlamydophila pneumoniae (Cpn)” value in series [1] is “good activity”. Turning to `CC[C@H]1OC(=O)[C@H](C)[C@@H](O[C@H]2C[C@@](C)(OC)[C@@H](O)[C@H](C)O2)[C@H](C)[C@@H](O[C@@H]2O[C@H](C)C[C@H](N(C)C)[C@H]2O)[C@](C)(O)C[C@@H](C)CN(C)[C@H](C)[C@@H](O)[C@]1(C)O` [Azithromycin], the “clinical benefit as monotherapy” value in series [2] was “some benefit, but this was not sustained”.
